This is an account of results in ChEMBL document CHEMBL5212743, “Selectivity Literature for EUbOPEN Chemogenomics Library wave 3” (2023).

The target in experiment [1] is High affinity nerve growth factor receptor (Homo sapiens, UniProt P04629). As to the kind of experiment: Selectivity interaction (KinomeScan (DiscoverX, competition-binding assay)).
For experiment [2], the target named is T1, Gamma-aminobutyric acid receptor subunit alpha-1 (Homo sapiens, UniProt P14867).
T1 sequence (P14867 whole entry): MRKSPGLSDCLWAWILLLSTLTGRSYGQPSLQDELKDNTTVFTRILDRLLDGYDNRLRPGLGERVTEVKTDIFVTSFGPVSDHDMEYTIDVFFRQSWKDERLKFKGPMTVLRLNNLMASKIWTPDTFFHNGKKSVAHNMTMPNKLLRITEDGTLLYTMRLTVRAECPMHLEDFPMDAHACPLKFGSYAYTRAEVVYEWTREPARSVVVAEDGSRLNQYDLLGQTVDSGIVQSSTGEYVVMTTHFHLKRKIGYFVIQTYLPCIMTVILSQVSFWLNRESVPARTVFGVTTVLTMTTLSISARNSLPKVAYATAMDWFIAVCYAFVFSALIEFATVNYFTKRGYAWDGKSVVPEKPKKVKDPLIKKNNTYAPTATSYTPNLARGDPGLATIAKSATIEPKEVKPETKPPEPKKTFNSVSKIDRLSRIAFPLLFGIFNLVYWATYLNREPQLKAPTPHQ
As to the kind of experiment: Selectivity interaction (GPCR panel (PDSP screen)) EUB0000739a GABRA1.

Experiment [3] deals with Tyrosine-protein kinase ABL1 (Homo sapiens, UniProt P00519). Particulars: at 1 µM.
Sequence of Tyrosine-protein kinase ABL1 (P00519 whole entry): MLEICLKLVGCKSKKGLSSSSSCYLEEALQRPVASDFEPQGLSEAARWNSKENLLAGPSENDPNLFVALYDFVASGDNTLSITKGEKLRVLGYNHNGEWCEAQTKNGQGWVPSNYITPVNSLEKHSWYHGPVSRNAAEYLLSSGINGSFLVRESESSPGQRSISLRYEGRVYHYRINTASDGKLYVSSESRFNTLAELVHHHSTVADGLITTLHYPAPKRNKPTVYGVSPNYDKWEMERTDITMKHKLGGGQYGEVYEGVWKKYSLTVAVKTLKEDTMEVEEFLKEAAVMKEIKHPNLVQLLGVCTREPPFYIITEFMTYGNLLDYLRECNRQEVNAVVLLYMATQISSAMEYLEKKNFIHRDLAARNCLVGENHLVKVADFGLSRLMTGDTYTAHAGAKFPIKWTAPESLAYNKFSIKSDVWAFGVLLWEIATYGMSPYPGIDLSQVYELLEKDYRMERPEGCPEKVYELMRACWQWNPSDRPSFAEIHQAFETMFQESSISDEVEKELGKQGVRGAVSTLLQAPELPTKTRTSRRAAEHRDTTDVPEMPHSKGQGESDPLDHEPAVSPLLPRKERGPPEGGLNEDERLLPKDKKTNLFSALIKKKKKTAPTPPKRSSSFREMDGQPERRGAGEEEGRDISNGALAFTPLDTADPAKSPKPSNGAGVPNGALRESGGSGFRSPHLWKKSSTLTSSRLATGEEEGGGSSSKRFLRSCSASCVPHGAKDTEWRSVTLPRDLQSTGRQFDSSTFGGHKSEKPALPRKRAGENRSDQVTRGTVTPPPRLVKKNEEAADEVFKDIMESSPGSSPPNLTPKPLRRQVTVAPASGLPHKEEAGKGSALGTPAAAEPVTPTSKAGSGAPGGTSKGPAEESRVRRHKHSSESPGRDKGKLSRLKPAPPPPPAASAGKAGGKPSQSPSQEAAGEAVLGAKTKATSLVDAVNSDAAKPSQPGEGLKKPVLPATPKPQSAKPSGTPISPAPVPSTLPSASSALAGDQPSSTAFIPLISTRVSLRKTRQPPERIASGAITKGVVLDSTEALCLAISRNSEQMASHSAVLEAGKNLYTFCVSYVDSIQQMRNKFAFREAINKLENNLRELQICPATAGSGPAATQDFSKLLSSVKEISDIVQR
The target of experiment [4] is Tyrosine-protein kinase JAK2 (Homo sapiens, UniProt O60674). Particulars: at 1 µM.
Sequence of Tyrosine-protein kinase JAK2 (O60674 whole entry): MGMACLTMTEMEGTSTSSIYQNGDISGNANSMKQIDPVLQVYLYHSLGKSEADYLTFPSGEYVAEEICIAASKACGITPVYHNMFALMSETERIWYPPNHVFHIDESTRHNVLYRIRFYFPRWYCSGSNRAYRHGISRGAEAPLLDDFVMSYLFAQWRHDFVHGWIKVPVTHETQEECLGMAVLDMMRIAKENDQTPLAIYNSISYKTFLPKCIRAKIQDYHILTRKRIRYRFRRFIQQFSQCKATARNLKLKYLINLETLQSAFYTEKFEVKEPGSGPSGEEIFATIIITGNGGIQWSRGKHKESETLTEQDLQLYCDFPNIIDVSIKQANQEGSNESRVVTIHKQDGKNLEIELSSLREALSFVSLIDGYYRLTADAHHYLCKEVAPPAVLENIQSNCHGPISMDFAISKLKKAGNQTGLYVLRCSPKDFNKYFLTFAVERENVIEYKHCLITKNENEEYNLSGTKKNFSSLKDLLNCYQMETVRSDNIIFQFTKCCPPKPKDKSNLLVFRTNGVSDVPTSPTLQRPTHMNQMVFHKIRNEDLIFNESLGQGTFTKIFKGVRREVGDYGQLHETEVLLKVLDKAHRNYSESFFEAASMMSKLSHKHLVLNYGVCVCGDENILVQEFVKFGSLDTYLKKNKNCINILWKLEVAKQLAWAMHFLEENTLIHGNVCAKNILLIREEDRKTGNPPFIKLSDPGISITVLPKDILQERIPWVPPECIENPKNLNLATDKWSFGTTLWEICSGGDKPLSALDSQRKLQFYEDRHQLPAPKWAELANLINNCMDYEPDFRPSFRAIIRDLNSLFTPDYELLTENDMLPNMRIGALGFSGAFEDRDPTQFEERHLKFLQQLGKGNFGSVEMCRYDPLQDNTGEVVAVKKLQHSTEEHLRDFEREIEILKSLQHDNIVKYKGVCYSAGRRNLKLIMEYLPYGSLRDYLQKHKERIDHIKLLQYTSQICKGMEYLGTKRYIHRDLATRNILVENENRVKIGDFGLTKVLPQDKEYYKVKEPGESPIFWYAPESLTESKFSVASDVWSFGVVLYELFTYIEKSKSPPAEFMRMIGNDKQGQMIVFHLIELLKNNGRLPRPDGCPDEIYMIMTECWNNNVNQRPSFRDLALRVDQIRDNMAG
Experiment [5] concerns the target T2, Alpha-1B adrenergic receptor (Homo sapiens, UniProt P35368).
T2 sequence (P35368 whole entry): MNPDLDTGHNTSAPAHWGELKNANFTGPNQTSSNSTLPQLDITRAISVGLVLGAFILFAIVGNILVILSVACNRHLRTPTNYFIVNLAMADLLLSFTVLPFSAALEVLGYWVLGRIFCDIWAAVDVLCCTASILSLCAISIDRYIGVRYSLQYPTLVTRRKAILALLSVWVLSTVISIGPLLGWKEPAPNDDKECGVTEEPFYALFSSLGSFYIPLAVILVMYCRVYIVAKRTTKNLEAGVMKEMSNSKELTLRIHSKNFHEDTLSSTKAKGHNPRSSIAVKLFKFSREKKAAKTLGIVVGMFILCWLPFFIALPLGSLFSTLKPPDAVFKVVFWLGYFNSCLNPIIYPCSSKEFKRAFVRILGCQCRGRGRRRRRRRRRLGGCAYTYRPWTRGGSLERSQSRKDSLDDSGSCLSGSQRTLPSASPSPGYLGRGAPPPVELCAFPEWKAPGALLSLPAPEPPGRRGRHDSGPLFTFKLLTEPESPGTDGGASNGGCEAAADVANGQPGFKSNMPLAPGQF
Put plainly: Selectivity interaction (GPCR panel (PDSP screen)) EUB0000739a ADRA1B.

Experiment [6] concerns the target T3, Tyrosine-protein kinase JAK3 (Homo sapiens) (UniProt P52333).
T3 sequence (whole entry): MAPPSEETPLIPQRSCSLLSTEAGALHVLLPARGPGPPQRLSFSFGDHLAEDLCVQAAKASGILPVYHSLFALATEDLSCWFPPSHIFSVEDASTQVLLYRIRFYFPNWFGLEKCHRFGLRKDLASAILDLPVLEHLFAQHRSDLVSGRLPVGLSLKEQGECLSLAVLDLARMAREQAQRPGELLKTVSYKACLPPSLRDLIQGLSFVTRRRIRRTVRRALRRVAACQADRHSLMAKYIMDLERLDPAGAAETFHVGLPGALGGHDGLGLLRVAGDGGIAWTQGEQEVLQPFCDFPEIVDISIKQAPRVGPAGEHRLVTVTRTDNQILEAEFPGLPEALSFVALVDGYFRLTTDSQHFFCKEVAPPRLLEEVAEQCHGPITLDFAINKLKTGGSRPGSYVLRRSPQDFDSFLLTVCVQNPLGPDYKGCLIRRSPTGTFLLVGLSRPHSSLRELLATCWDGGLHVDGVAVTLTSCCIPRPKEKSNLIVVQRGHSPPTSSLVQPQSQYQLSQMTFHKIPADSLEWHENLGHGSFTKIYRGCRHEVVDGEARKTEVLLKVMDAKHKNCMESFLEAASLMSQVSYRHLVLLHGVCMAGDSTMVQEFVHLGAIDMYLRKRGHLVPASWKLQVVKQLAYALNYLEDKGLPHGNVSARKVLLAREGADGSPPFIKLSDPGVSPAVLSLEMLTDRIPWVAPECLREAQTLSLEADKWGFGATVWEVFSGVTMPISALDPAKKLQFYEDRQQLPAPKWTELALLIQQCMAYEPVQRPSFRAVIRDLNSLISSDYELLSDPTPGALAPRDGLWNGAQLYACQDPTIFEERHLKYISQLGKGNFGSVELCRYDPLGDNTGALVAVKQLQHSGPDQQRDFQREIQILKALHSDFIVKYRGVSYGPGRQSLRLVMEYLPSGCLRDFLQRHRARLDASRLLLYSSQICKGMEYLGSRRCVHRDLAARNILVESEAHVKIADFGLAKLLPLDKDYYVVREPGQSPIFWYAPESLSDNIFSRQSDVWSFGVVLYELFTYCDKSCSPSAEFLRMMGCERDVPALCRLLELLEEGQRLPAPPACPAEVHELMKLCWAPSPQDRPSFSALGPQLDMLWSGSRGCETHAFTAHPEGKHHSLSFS
As to the kind of experiment: Selectivity interaction (KinomeScan (DiscoverX)) EUB0000715a JAK3. Particulars: at 100 nM.

Experiment [7] addresses T4, Mitogen-activated protein kinase kinase kinase 13 (Homo sapiens) (UniProt O43283).
T4 sequence (whole entry): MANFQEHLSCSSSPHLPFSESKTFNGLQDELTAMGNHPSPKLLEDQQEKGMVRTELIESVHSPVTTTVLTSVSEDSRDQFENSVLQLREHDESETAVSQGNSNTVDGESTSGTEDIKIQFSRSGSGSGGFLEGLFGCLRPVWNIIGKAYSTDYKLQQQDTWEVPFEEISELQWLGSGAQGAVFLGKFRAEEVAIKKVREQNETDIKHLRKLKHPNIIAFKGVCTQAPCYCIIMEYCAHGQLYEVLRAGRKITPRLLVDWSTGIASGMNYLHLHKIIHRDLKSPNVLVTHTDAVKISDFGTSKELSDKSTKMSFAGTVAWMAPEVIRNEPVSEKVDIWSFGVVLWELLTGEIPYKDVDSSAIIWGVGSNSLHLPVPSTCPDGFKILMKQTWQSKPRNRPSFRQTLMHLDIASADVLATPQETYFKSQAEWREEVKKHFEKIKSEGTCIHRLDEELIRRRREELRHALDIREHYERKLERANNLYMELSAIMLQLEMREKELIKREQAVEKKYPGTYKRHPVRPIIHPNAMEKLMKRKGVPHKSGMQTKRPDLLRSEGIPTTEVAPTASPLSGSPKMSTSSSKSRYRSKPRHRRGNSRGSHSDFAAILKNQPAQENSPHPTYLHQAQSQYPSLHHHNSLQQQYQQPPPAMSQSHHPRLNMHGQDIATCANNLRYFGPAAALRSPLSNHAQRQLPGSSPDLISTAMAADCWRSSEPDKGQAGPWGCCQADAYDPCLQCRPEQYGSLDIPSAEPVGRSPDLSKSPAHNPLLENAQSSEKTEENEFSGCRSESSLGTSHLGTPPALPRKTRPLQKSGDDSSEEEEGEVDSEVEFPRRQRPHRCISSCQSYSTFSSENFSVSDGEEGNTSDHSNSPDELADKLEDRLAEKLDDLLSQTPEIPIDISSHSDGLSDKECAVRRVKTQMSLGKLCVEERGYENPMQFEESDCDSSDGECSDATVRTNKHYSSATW
Put plainly: Selectivity interaction (KinomeScan (DiscoverX)) EUB0000715a MAP3K13. Particulars: at 100 nM.

For experiment [8], the target named is Epidermal growth factor receptor (Homo sapiens, UniProt P00533). As to the kind of experiment: Selectivity interaction (KinomeScan (DiscoverX)) EUB0000715a EGFR. Particulars: at 100 nM.
Sequence of Epidermal growth factor receptor (P00533 whole entry): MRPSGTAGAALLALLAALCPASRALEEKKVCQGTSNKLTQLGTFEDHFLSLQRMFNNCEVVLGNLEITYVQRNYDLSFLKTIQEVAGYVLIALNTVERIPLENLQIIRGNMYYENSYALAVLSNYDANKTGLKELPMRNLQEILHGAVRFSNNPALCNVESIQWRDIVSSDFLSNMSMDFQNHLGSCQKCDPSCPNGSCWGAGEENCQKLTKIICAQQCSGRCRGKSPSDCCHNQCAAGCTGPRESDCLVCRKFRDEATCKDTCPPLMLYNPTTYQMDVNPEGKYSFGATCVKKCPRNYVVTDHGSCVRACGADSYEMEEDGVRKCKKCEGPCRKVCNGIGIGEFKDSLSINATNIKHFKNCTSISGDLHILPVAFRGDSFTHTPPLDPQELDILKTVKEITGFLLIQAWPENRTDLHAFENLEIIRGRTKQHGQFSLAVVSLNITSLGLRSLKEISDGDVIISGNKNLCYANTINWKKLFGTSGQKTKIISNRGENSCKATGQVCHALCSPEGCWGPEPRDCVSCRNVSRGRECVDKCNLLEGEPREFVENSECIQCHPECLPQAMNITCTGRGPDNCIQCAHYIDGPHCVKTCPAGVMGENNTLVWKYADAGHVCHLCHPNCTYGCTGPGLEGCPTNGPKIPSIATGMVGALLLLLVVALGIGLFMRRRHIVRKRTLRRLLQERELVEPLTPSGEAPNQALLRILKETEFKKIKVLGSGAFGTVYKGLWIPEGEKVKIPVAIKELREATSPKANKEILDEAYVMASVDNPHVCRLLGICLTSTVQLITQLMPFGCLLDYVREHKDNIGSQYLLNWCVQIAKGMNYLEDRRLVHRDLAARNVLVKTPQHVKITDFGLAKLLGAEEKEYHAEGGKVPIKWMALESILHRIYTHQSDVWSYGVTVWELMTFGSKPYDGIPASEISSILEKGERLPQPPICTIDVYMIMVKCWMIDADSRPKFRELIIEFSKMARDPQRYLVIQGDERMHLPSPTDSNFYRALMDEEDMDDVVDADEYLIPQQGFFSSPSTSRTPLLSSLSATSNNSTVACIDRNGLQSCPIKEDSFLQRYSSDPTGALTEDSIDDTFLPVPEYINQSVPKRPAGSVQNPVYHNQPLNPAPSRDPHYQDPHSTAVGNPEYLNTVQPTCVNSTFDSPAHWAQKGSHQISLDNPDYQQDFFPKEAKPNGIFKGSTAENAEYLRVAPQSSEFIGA
For experiment [9], the target named is T5, Sodium/nucleoside cotransporter 2 (Homo sapiens, UniProt O43868).
T5 sequence (O43868 whole entry): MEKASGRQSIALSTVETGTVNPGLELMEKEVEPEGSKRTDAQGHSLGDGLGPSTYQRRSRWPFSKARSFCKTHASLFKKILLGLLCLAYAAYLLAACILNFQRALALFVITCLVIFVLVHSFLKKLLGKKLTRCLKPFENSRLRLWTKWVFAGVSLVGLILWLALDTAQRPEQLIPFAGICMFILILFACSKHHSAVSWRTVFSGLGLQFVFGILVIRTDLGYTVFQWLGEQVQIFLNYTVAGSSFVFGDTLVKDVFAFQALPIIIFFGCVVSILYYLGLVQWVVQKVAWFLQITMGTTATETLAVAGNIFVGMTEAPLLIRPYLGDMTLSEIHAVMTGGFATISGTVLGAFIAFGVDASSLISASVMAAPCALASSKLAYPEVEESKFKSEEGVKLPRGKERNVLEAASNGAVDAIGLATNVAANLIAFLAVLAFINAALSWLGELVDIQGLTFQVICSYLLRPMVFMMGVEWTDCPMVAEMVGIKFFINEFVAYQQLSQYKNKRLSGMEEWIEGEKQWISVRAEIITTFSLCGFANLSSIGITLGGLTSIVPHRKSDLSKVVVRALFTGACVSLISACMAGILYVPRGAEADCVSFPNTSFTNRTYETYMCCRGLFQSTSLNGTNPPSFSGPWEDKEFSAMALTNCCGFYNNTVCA
Put plainly: Selectivity interaction (Enzymatic assay (PanLabs Profiling)) EUB0000715a SLC28A2.

Sequence of High affinity nerve growth factor receptor (P04629 whole entry): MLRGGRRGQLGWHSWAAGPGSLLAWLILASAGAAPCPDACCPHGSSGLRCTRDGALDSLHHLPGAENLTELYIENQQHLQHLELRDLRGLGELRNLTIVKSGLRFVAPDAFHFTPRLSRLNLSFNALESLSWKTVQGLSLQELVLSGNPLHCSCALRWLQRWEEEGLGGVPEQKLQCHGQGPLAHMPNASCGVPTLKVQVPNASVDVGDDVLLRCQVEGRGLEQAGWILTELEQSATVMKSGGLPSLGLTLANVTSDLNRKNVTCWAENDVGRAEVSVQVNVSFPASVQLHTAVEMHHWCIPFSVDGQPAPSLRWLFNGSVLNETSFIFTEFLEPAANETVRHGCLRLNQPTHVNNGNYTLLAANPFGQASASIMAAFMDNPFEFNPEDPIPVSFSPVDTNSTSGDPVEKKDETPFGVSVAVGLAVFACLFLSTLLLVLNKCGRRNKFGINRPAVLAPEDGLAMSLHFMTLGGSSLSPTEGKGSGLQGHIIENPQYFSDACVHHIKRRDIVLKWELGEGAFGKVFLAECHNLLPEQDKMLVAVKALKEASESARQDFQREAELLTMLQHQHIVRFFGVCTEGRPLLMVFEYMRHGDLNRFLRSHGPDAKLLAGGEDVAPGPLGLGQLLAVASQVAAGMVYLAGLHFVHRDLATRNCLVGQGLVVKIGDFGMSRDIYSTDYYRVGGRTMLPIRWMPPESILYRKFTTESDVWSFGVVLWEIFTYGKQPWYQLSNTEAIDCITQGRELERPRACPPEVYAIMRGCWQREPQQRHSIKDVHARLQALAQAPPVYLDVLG

Broadly, the Kd is the constant that tells how readily two partners part at equilibrium. In [1], `COc1ccc(COc2ccc(Cc3cnc(N)nc3N)cc2OC)cc1` [GW632580X] registered a Kd of less than 0.1 µM.
By Ki is commonly meant a dissociation constant, usually derived from enzyme kinetics or from competition with a known ligand. High values mean a looser hold on the target, low ones a stronger hold on the target. For `COc1cc(-c2cn([C@H]3CCc4ccccc4N(CC(F)(F)F)C3=O)nn2)ccc1-n1ccc(C)n1`, the Ki in [2] was 5.07 µM; in experiment [5], greater than 10 µM. The % of control in experiment [3] is 47%; in [4], 34%.
In general, IC50 refers to the concentration at which inhibition is half-maximal. Lower therefore signals inhibition by little substance. Take `C[C@@H]1CN(c2cc(-c3n[nH]c4ccc(OC5(C)CC5)cc34)ncn2)C[C@H](C)O1` [MLi-2]: the values for the % of control in [6], in experiment [7] and in experiment [8] were 0%, 0% and 43%, respectively. The compound further displayed an IC50 in [9] of 9.7 µM.
